Measurements from patent US20030114441A1, “Heterocyclic anti-epileptogenic agents and methods of use thereof” (Queen's University at Kingston, priority 2001, published 2003).

How the values were obtained:
PTZ-induced seizure = assay: Subcutaneous pentylenetetrazole (PTZ)-induced seizure model; format: in vivo, male Carworth Farms #1 mice or male Sprague-Dawley rats; set-up: key to PTZ 0.5 hr / PTZ 4 hr: — = no activity; settings: for PTZ 0.5 hr / PTZ 4 hr: i.p. at 300, 100 and 30 mg/kg; for PTZ 0.5 hr: PTZ 0.5 hr after administration; for PTZ 4 hr: PTZ 4 hr after administration
Protocol: The MES and PTZ assays were performed by the Anticonvulsant Drug Development (ADD) Program in the Epilepsy Branch of the NIH (see, e.g., Stables and Kupferberg (1997) The NIH anticonvulsant Drug Development (ADD) Program: Preclinical Anticonvulsant Screening Project, Libby & Sons). All compounds were tested with either male Carworth Farms #1 mice or male Sprague-Dawley rats. Each test compound was administered via an i.p. injection at 300, 100, and 30 mg/kg. In the subcutaneous pentylenetetrazole (PTZ)-induced seizure model, seizures are induced 0.5 and 4 hrs after test compound administration by i.p. injection of PTZ (85 mg/kg in mice and 70 mg/kg in rats). Protection is defined as the inhibition of clonic spasms over a 30 min observation period.

[1] = test system: pilocarpine-induced seizures; assay: Pilocarpine assay (seizure model); format: in vivo, adult male Sprague-Dawley rats; settings: 100 mg/kg i.p., 20 min before pilocarpine hydrochloride 350 mg/kg i.p.; 30 minute observation
Protocol: A seizure model is performed using adult male Sprague-Dawley rats in accordance with the guidelines of the Canada Council on Animal Care and under the supervision of the Queen's University Animal Ethics Committee. This test procedure was adopted from previous work by Turski et al. (1984) Brain Res. 321:237. The test compounds are administered at 100 mg/kg by intraperitoneal (i.p.) injection. Seizures are induced 20 minutes afterwards by i.p. administration of pilocarpine hydrochloride (350 mg/kg). Protection is defined as the absence of clonic spasms over a 30 minute observation period after pilocarpine administration.

MES-induced seizure = assay: Maximal electroshock seizure test (MES); format: in vivo, male Carworth Farms #1 mice or male Sprague-Dawley rats; set-up: key to MES 0.5 hr / MES 4 hr: — = no activity; settings: for MES 0.5 hr / MES 4 hr: i.p. at 300, 100 and 30 mg/kg; for MES 0.5 hr: stimulus 0.5 hr after administration; for MES 4 hr: stimulus 4 hr after administration
Protocol: The MES and PTZ assays were performed by the Anticonvulsant Drug Development (ADD) Program in the Epilepsy Branch of the NIH (see, e.g., Stables and Kupferberg (1997) The NIH anticonvulsant Drug Development (ADD) Program: Preclinical Anticonvulsant Screening Project, Libby & Sons). All compounds were tested with either male Carworth Farms #1 mice or male Sprague-Dawley rats. Each test compound was administered via an i.p. injection at 300, 100, and 30 mg/kg. For the maximal electroshock seizure test (MES), corneal electrodes primed with a drop of electrolyte solution (0.9% NaCl) are applied to the eyes of the animal and an electrical stimulus (50 mA for mice, 150 mA for rats; 60 Hz) is delivered for 0.2 seconds at 0.5 and 4.0 hours after test compound administration. The animals are restrained by hand and are released at the moment of stimulation in order to permit observation of the seizure.

[2] = test system: spontaneous recurrent seizures; assay: Spontaneous recurrent seizures (SRS) model of epilepsy; format: in vivo, adult male Sprague-Dawley rat; settings: 20 mg/kg/day i.v. for 10 day
Protocol: The “spontaneous recurrent seizures” (SRS) model of epilepsy is used to evaluate candidate compounds in a model for Phase 1 epileptogenesis (see, e.g., Mello, E. et al., Epilepsia (1993) 34:985; Cavalheiro, J. et al., Epilepsia (1991) 32:778). In the SRS model, an adult male Sprague-Dawley rat (c. 260 g) is given pilocarpine by injection (380 mg/kg i.p.). Within 25 minutes, the animal enters status epilepticus, which lasts for 3 hours, and then diazepam is administered to stop seizures. The rat is allowed to spontaneously recover and is given food and water ad lib. and maintained on a 12 hour/12 hour light/dusk cycle. Beginning on about day 13-15, the rats develop spontaneous recurrent seizures, which occur at the rate of about 4-5 per week. The rats are videotaped 8 hours per day 5 days per week, and the videotapes are reviewed for behavioral seizures (including head nodding, forelimb clonus, and rearing), which are counted. The animals are watched for two months, permitting evaluation of a sufficient number of seizures. An experimental compound for evaluation can be administered at either of two times: Time 1, on Day 1, after the cessation of status epilepticus but before the onset of SRS; or Time 2, on Day 30, when the rats have been experiencing SRS for about two weeks. […]

[3] = @ 100 mg, i.p., 4 hr after administration

| Compound | PTZ 0.5 hr (PTZ-induced seizure) | PTZ 4 hr (PTZ-induced seizure) | Pilocarpine, activity in words [1] | MES 0.5 hr (MES-induced seizure) | MES 4 hr (MES-induced seizure) | also measured |
| --- | --- | --- | --- | --- | --- | --- |
| COC(=O)CC(c1ccc2ccccc2n1)N(Cc1ccccc1)Cc1ccccc1 (stereo not shown) | — | — | Inactive | — |  | MES 4 hr, fraction of animals (MES-induced seizure; [3]): 1/3 @ 100 mg |
| O=C(CC(c1ccc2ccccc2n1)N(Cc1ccccc1)Cc1ccccc1)N(Cc1ccccc1)Cc1ccccc1 (stereo not shown) | — | — | Min. Active | — | — |  |
| COC(=O)CC(NC(C)c1ccccc1)c1cc2ccccc2o1 (stereo not shown) |  |  | Active | — | — | PTZ 4 hr, fraction of animals (PTZ-induced seizure; [3]): 1/5 @ 100 mg; PTZ 0.5 hr, fraction of animals (PTZ-induced seizure; @ 300 mg, i.p., 0.5 hr after administration): 2/5 @ 300 mg |
| COC(=O)CC(NC(C)c1ccccc1)c1cnc2ccccc2c1 (stereo not shown) | — | — | Min. Active | — | — |  |
| COC(=O)CC(NC(C)c1ccccc1)c1ccc2ccccc2n1 (stereo not shown) | — | — | Active | — | — |  |
| COC(=O)CC(NC(C)c1ccccc1)c1ccc2c(c1)cc(C)n2S(=O)(=O)c1ccccc1 (stereo not shown) |  |  | Active |  |  |  |
| NC(CC(=O)O)c1ccc2c(c1)OCCO2 (stereo not shown) |  |  | Min. Active |  |  |  |
| CC(NC(CC(=O)O)c1ccc2ccccc2n1)c1ccccc1 (stereo not shown) |  |  | Active |  |  |  |
| COC(=O)CC(Nc1ccccc1OC)c1ccc2ccccc2n1 (stereo not shown) |  |  | Active |  |  |  |
| COC(=O)CC(Nc1ccccc1OC)c1cc2ccccc2nc1Cl (stereo not shown) |  |  | Min. Active |  |  |  |
| NC(CC(=O)O)c1cccs1 (stereo not shown) | — | — | Active | — | — |  |
| O=C1NC(=O)C(c2ccccc2)(c2ccccc2)N1 [phenytoin] |  |  |  |  |  | Preventing the onset of seizures (Time 1) ([2]; Time 1 (Day 1, after status epilepticus, before onset of SRS)): ineffective; Effective at decreasing seizure frequency by 50% or more (Time 2) ([2]; Time 2 (Day 30, established SRS)): 75% |
